Common to all, as to experiment: cell-based
One assay addresses hNav1.7 (Homo sapiens, UniProt Q15858). Format: cell-based. To be noted: IonWorks Quattro, read-out: IWQ Use Nav1.7. On the technique in general: The patch-clamp technique gives a direct electrical read-out from membranes.
A further assay deals with hNav1.5 (Homo sapiens, UniProt Q14524). To be noted: IonWorks Quattro, read-out: IWQ Use Nav1.5.
The target in the next assay is hNav1.3 (Homo sapiens, UniProt Q9NY46). To be noted: IonWorks Quattro, read-out: IWQ Use Nav1.3.
Sequence of hNav1.3 (Q9NY46 whole entry, looked up): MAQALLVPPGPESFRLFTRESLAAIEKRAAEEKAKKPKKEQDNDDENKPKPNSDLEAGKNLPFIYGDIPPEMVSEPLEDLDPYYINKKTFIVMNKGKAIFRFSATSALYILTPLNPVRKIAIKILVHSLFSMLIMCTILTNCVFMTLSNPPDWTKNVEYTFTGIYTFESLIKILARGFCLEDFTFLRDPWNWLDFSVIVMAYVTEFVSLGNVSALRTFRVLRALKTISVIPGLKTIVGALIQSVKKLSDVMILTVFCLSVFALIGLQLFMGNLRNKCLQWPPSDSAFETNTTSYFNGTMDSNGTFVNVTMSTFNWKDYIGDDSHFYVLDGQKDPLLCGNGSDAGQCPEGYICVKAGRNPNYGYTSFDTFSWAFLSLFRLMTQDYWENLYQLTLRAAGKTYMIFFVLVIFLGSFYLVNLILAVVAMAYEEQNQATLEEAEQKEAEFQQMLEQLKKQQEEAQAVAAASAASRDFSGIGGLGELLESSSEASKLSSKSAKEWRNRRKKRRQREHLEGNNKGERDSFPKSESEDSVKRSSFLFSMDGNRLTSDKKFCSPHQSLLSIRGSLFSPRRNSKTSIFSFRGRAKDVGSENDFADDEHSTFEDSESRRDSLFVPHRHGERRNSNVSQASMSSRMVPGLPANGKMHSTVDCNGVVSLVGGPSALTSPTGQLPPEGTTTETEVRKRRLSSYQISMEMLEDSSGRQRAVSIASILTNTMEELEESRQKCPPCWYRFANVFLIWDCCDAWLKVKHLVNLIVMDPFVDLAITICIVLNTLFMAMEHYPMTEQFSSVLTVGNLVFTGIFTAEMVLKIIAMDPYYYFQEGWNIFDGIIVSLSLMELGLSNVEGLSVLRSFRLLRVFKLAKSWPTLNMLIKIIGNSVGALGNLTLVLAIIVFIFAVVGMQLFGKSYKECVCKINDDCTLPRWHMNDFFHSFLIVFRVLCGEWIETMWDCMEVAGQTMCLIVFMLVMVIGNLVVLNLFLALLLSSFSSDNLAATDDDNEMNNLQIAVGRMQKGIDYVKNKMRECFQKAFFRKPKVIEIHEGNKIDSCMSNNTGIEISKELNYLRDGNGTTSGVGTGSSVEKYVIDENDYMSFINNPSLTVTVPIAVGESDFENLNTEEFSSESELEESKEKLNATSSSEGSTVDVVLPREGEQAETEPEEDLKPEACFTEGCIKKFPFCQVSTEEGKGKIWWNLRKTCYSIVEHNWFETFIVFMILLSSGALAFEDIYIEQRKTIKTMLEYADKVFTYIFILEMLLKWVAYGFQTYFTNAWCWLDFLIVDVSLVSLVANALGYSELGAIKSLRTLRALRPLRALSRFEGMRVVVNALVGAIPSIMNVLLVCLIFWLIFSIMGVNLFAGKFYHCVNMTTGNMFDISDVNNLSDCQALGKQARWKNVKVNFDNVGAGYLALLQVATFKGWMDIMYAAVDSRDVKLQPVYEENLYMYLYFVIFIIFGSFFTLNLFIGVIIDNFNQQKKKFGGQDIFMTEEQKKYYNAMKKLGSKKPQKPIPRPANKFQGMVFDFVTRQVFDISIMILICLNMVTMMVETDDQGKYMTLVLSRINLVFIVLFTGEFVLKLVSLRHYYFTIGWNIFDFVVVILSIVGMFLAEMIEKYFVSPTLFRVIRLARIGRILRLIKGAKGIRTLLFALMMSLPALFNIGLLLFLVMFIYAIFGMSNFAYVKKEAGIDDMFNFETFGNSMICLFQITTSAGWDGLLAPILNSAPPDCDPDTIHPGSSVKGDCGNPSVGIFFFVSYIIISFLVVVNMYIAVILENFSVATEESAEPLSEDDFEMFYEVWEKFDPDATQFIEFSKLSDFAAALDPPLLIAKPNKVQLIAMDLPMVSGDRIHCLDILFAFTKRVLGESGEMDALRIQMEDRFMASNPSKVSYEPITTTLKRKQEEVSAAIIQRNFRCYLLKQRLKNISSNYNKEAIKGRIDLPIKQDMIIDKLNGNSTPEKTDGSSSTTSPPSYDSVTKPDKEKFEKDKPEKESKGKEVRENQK
Where [1] appears, read: clamped to −110 mV, depolarized to −10 mV, 5 min after compound, n=2.

Like-named read-outs stand apart in the source and are kept apart here. Positions of bridges follow the written chain, without caps; N, C: chain ends. Non-standard residues stand in square brackets, D forms with d. Residues, ends and D or L forms follow the SMILES beside them. *: point of attachment. 2Pal = N[C@@H](Cc1ccccn1)C(=O)O; Pent4ynoyl = C#CCCC(=O)*; Abu = CC[C@H](N)C(=O)O

Sequence of hNav1.7 (Q15858 whole entry, looked up): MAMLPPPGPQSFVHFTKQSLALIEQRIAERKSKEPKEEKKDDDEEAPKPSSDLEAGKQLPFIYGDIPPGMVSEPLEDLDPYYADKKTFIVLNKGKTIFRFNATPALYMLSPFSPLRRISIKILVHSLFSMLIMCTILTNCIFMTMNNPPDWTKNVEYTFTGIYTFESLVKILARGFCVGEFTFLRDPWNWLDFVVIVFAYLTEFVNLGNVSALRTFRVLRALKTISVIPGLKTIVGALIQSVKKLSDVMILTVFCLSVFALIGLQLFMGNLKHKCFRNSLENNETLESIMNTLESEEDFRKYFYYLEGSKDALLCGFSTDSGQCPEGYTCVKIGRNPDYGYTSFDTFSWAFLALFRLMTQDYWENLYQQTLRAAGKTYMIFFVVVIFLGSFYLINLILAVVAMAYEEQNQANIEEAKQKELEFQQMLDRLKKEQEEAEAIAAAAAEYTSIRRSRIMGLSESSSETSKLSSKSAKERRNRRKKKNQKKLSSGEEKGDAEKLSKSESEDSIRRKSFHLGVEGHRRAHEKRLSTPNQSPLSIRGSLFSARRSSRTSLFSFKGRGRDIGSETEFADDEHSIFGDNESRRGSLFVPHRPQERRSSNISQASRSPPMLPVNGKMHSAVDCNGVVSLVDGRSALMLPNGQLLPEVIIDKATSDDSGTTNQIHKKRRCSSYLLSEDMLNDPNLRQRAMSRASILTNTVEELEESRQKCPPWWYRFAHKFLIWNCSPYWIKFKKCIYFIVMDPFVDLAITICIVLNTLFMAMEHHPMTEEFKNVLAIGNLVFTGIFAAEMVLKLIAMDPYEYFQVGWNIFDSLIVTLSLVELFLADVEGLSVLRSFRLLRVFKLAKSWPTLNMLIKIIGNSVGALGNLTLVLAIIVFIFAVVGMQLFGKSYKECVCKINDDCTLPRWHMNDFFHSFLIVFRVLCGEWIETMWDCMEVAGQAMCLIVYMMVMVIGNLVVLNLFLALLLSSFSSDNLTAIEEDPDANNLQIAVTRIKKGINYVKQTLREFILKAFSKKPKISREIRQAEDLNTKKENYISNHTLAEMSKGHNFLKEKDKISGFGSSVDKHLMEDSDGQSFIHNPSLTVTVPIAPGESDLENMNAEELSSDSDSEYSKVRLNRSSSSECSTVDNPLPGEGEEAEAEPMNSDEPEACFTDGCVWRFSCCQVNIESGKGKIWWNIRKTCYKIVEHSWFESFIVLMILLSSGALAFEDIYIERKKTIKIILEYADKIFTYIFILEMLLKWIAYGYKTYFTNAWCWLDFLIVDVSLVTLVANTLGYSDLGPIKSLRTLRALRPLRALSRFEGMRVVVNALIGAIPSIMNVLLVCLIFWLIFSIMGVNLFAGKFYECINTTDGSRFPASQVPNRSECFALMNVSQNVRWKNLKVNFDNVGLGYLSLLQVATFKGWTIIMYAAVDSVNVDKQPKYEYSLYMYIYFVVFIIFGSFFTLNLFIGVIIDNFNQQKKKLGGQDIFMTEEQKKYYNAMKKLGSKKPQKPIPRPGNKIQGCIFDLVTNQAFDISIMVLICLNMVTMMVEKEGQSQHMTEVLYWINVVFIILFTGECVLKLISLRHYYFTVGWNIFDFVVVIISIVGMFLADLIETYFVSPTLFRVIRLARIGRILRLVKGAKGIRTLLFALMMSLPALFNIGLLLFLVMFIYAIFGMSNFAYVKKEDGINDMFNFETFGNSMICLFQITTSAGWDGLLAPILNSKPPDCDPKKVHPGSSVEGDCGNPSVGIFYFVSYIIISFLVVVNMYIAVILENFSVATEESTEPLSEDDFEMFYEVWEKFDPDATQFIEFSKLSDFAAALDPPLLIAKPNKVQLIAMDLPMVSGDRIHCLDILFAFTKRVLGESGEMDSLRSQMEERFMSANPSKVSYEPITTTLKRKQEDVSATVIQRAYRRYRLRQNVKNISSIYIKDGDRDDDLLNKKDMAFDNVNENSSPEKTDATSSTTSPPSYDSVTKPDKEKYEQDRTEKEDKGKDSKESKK

Take `CC[C@H](C)[C@@H]1NC(=O)[C@@H]2CSSC[C@@H]3NC(=O)[C@H](C(C)C)NC(=O)[C@H](CC(C)C)NC(=O)[C@H](CC(N)=O)NC(=O)[C@@H]4CCCN4C(=O)[C@H](CCCNC(=N)N)NC(=O)[C@H](CSSC[C@H](NC(=O)[C@@H](N)CC(=O)O)C(=O)N[C@@H](CC(C)C)C(=O)NCC(=O)N[C@@H](C)C(=O)N[C@@H](CC(C)C)C(=O)N[C@@H](CCCNC(=N)N)C(=O)N[C@@H](CCCCN)C(=O)N2)NC(=O)[C@H](CSSC[C@@H](C(=O)N[C@@H](CCCCN)C(=O)N[C@@H](Cc2ccc(O)cc2)C(=O)N[C@H](C(=O)N[C@@H](Cc2ccccc2)C(=O)O)C(C)C)NC(=O)[C@H](Cc2c[nH]c4ccccc24)NC(=O)[C@H](CO)NC(=O)[C@H](Cc2c[nH]cn2)NC(=O)[C@H]([C@@H](C)O)NC(=O)[C@H](CCCNC(=N)N)NC(=O)[C@H](CO)NC3=O)NC(=O)[C@H](CCCCN)NC(=O)[C@H](CC(=O)O)NC(=O)[C@H](CC(N)=O)NC(=O)[C@H](CC(=O)O)NC(=O)[C@@H]2CCCN2C1=O` [compound 859] (H-DCLGALRKCIPDNDKCCRPNLVCSRTHSWCKYVF-OH; disulfide 2-17, 9-23, 16-30): the IC50 at hNav1.7 (use-dependent block, hNav1.7) is above 5000 nM; at hNav1.5 (use-dependent block, hNav1.5), above 5000 nM; at hNav1.3 (use-dependent block, hNav1.3), above 5000 nM.
On to `CC[C@H](C)[C@@H]1NC(=O)[C@@H]2CSSC[C@@H]3NC(=O)[C@H](C(C)C)NC(=O)[C@H](CC(C)C)NC(=O)[C@H](CC(N)=O)NC(=O)[C@@H]4CCCN4C(=O)[C@H](CCCNC(=N)N)NC(=O)[C@H](CSSC[C@H](NC(=O)[C@@H](N)CC(=O)O)C(=O)N[C@@H](CC(C)C)C(=O)NCC(=O)N[C@@H](C)C(=O)N[C@@H](CC(C)C)C(=O)N[C@@H](CCCNC(=N)N)C(=O)N[C@@H](CCCCN)C(=O)N2)NC(=O)[C@H](CSSC[C@@H](C(=O)N[C@@H](CCCCN)C(=O)N[C@@H](Cc2ccc(O)cc2)C(=O)N[C@H](C(=O)N[C@@H](Cc2ccccc2)C(N)=O)C(C)C)NC(=O)[C@H](Cc2c[nH]c4ccccc24)NC(=O)[C@H](CCCCN)NC(=O)[C@H](Cc2c[nH]cn2)NC(=O)[C@H]([C@@H](C)O)NC(=O)[C@H](CCC(=O)O)NC(=O)[C@H](CO)NC3=O)NC(=O)[C@H](CCCCN)NC(=O)[C@H](CC(=O)O)NC(=O)[C@H](CC(N)=O)NC(=O)[C@H](CC(=O)O)NC(=O)[C@@H]2CCCN2C1=O` [compound 734], for which the IC50 is 1800 nM at hNav1.7 (use-dependent block, hNav1.7); 41000 nM on hNav1.5 (use-dependent block, hNav1.5); 9300 nM on hNav1.3 (use-dependent block, hNav1.3).
The like results for `C#CCCC(=O)NCCCC[C@@H]1NC(=O)[C@H](CC(=O)O)NC(=O)[C@@H]2CCCN2C(=O)[C@H]([C@@H](C)CC)NC(=O)[C@@H]2CSSC[C@@H]3NC(=O)[C@H](C(C)C)NC(=O)[C@H](CC(C)C)NC(=O)[C@H](CC(N)=O)NC(=O)[C@@H]4CCCN4C(=O)[C@H](CCCNC(=N)N)NC(=O)[C@H](CSSC[C@H](NC(=O)[C@@H](N)CC(=O)O)C(=O)N[C@@H](CC(C)C)C(=O)NCC(=O)N[C@@H](CC)C(=O)N[C@@H](Cc4ccccc4)C(=O)N[C@@H](CCCNC(=N)N)C(=O)N[C@@H](CCCCN)C(=O)N2)NC(=O)[C@H](CSSC[C@@H](C(=O)N[C@@H](CCCCN)C(=O)N[C@@H](Cc2ccc(O)cc2)C(=O)N[C@H](C(=O)N[C@@H](Cc2ccccc2)C(N)=O)C(C)C)NC(=O)[C@H](Cc2c[nH]c4ccccc24)NC(=O)[C@H](CCCCN)NC(=O)[C@H](Cc2c[nH]cn2)NC(=O)[C@H]([C@@H](C)O)NC(=O)[C@H](CCCNC(=N)N)NC(=O)[C@H](CO)NC3=O)NC(=O)[C@H](CCCCN)NC(=O)[C@H](CC(=O)O)NC1=O` [compound 804] (H-DCLG[Abu]FRKCIPDK(Pent4ynoyl)DKCCRPNLVCSRTHKWCKYVF-NH2; disulfide 2-17, 9-23, 16-30) were, in that order, 500 nM, above 50000 nM and 350 nM.
In the case of `CC[C@H](C)[C@@H]1NC(=O)[C@@H]2CSSC[C@@H]3NC(=O)[C@H](C(C)C)NC(=O)[C@H](CC(C)C)NC(=O)[C@H](CC(N)=O)NC(=O)[C@@H]4CCCN4C(=O)[C@H](CCCNC(=N)N)NC(=O)[C@H](CSSC[C@H](NC(=O)[C@@H](N)CC(=O)O)C(=O)N[C@@H](CC(C)C)C(=O)NCC(=O)N4CCC[C@H]4C(=O)N[C@@H](CCSC)C(=O)N[C@@H](CCCNC(=N)N)C(=O)N[C@@H](CCCCN)C(=O)N2)NC(=O)[C@H](CSSC[C@@H](C(=O)N[C@@H](CCCCN)C(=O)N[C@@H](Cc2ccc(O)cc2)C(=O)N[C@H](C(=O)N[C@@H](Cc2ccccc2)C(N)=O)C(C)C)NC(=O)[C@H](Cc2c[nH]c4ccccc24)NC(=O)[C@H](CCCCN)NC(=O)[C@H](Cc2c[nH]cn2)NC(=O)[C@H]([C@@H](C)O)NC(=O)[C@H](CCCNC(=N)N)NC(=O)[C@H](CO)NC3=O)NC(=O)[C@H](CCCCN)NC(=O)[C@H](CC(=O)O)NC(=O)[C@H](CC(N)=O)NC(=O)[C@H](CC(=O)O)NC(=O)[C@@H]2CCCN2C1=O` [SEQ ID NO: 269] (H-DCLGPMRKCIPDNDKCCRPNLVCSRTHKWCKYVF-NH2; disulfide 2-17, 9-23, 16-30), the IC50 at hNav1.7 (setting [1]) worked out at 1170 nM; on hNav1.5 (setting [1]) it was 6610 nM; on hNav1.3 (setting [1]), 1730 nM.
With `CC[C@H](C)[C@@H]1NC(=O)[C@@H]2CSSC[C@@H]3NC(=O)[C@H](C(C)C)NC(=O)[C@H](CC(C)C)NC(=O)[C@H](CC(N)=O)NC(=O)[C@@H]4CCCN4C(=O)[C@H](CCCNC(=N)N)NC(=O)[C@H](CSSC[C@H](NC(=O)[C@@H](N)CC(=O)O)C(=O)N[C@@H](CC(C)C)C(=O)NCC(=O)N[C@@H](Cc4ccccc4)C(=O)N[C@@H](CCSC)C(=O)N[C@@H](CCCNC(=N)N)C(=O)N[C@@H](CCCCN)C(=O)N2)NC(=O)[C@H](CSSC[C@@H](C(=O)N[C@@H](CCCCN)C(=O)N[C@@H](Cc2ccc(O)cc2)C(=O)N[C@H](C(=O)N[C@@H](Cc2ccccc2)C(N)=O)C(C)C)NC(=O)[C@H](Cc2c[nH]c4ccccc24)NC(=O)[C@H](CCCCN)NC(=O)[C@H](Cc2c[nH]cn2)NC(=O)[C@H](Cc2ccccn2)NC(=O)[C@H](CCCNC(=N)N)NC(=O)[C@H](CO)NC3=O)NC(=O)[C@H](CCCCN)NC(=O)[C@H](CC(=O)O)NC(=O)[C@H](CC(N)=O)NC(=O)[C@H](CC(=O)O)NC(=O)[C@@H]2CCCN2C1=O` [compound 349] (H-DCLGFMRKCIPDNDKCCRPNLVCSR[2Pal]HKWCKYVF-NH2; disulfide 2-17, 9-23, 16-30), the IC50 was found to be 260 nM on hNav1.7 (Table 22, use, […]); 10600 nM on hNav1.5 (Table 22, use, […]); 60 nM on hNav1.3 (Table 22, use, […]).
For the compound `CC[C@H](C)[C@@H]1NC(=O)[C@@H]2CSSC[C@@H]3NC(=O)[C@H](C(C)C)NC(=O)[C@H](CC(C)C)NC(=O)[C@H](CC(N)=O)NC(=O)[C@@H]4CCCN4C(=O)[C@H](CCCNC(=N)N)NC(=O)[C@H](CSSC[C@H](NC(=O)[C@@H](N)CC(=O)O)C(=O)N[C@@H](CC(C)C)C(=O)NCC(=O)N[C@@H](C)C(=O)N[C@@H](Cc4ccccc4)C(=O)N[C@@H](CCCNC(=N)N)C(=O)N[C@@H](CCCCN)C(=O)N2)NC(=O)[C@H](CSSC[C@@H](C(=O)N[C@@H](CCCCN)C(=O)N[C@@H](Cc2ccc(O)cc2)C(=O)N[C@H](C(=O)N[C@@H](Cc2ccccc2)C(=O)O)C(C)C)NC(=O)[C@H](Cc2c[nH]c4ccccc24)NC(=O)[C@H](CCCNC(=N)N)NC(=O)[C@H](Cc2c[nH]cn2)NC(=O)[C@H]([C@@H](C)O)NC(=O)[C@H](CCCNC(=N)N)NC(=O)[C@H](CO)NC3=O)NC(=O)[C@H](CCCCN)NC(=O)[C@H](CC(=O)O)NC(=O)[C@H](Cc2c[nH]c3ccccc23)NC(=O)[C@H](CC(=O)O)NC(=O)[C@@H]2CCCN2C1=O` [compound 852], the IC50 on hNav1.7 (use-dependent block, hNav1.7) is above 5000 nM; on hNav1.5 (use-dependent block, hNav1.5) it was above 5000 nM; on hNav1.3 (use-dependent block, hNav1.3), above 5000 nM.
With `CC[C@H](C)[C@@H]1NC(=O)[C@@H]2CSSC[C@@H]3NC(=O)[C@H](C(C)C)NC(=O)[C@H](CC(C)C)NC(=O)[C@H](CC(N)=O)NC(=O)[C@@H]4CCCN4C(=O)[C@H](CCCNC(=N)N)NC(=O)[C@H](CSSC[C@H](NC(=O)[C@@H](N)CC(=O)O)C(=O)N[C@@H](CC(C)C)C(=O)NCC(=O)N[C@@H](Cc4ccccc4)C(=O)N[C@@H](CCSC)C(=O)N[C@@H](CCCNC(=N)N)C(=O)N[C@@H](CCCCN)C(=O)N2)NC(=O)[C@H](CSSC[C@@H](C(=O)N[C@@H](CCCCN)C(=O)N[C@@H](Cc2ccc(O)cc2)C(=O)N[C@@H](Cc2c[nH]cn2)C(=O)N[C@@H](Cc2ccccc2)C(N)=O)NC(=O)[C@H](Cc2c[nH]c4ccccc24)NC(=O)[C@H](CCCCN)NC(=O)[C@H](Cc2c[nH]cn2)NC(=O)[C@H]([C@@H](C)O)NC(=O)[C@H](CCCNC(=N)N)NC(=O)[C@H](CO)NC3=O)NC(=O)[C@H](CCCCN)NC(=O)[C@H](CC(=O)O)NC(=O)[C@H](CC(N)=O)NC(=O)[C@H](CC(=O)O)NC(=O)[C@@H]2CCCN2C1=O` [compound 392] (H-DCLGFMRKCIPDNDKCCRPNLVCSRTHKWCKYHF-NH2; disulfide 2-17, 9-23, 16-30), the IC50 came to 20 nM at hNav1.7 (Table 26, use, […]); 8160 nM on hNav1.5 (Table 26, use, […]); 10 nM at hNav1.3 (Table 26, use, […]).

The record behind these values is US9340590B2 (priority 2011, dated 2016).
